Assay results taken from PubChem BioAssay (NCI).
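Method: 48-hour compound exposure of cells in 96-well plates, five concentrations, linear interpolation of endpoints. GI50 = concentration required for 50% inhibition of growth. The concentration for full growth arrest is given as TGI.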

Legend:
Test in all cases: DTP human tumour cell line panel, 48 h
SK-MEL-2 melanoma = test system: SK-MEL-2 melanoma
K-562 leukemia = test system: K-562 leukemia
IGROV1 ovarian = test system: IGROV1 ovarian
COLO 205 colon = test system: COLO 205 colon
OVCAR-8 ovarian = test system: OVCAR-8 ovarian
A498 renal = test system: A498 renal
SK-MEL-5 melanoma = test system: SK-MEL-5 melanoma
U251 CNS = test system: U251 CNS
HCC-2998 colon = test system: HCC-2998 colon
786-0 renal = test system: 786-0 renal

| SMILES | GI50 (SK-MEL-2 melanoma) | TGI (SK-MEL-2 melanoma) | GI50 (K-562 leukemia) | TGI (K-562 leukemia) | GI50 (IGROV1 ovarian) | TGI (IGROV1 ovarian) | GI50 (COLO 205 colon) | TGI (COLO 205 colon) | GI50 (OVCAR-8 ovarian) | TGI (OVCAR-8 ovarian) | GI50 (A498 renal) | TGI (A498 renal) | GI50 (SK-MEL-5 melanoma) | TGI (SK-MEL-5 melanoma) | GI50 (U251 CNS) | TGI (U251 CNS) | GI50 (HCC-2998 colon) | TGI (HCC-2998 colon) | GI50 (786-0 renal) | TGI (786-0 renal) |
| --- | --- | --- | --- | --- | --- | --- | --- | --- | --- | --- | --- | --- | --- | --- | --- | --- | --- | --- | --- | --- |
| Cc1cccc2c(C3=C(c4cn(C)c5ccccc45)C(=O)NC3=O)cn(C)c12 | 24.3 µM | > 25 µM | > 19.7 µM | > 25 µM | 25 µM | > 25 µM | > 16.9 µM | > 25 µM | 12.2 µM | > 25 µM | > 25 µM | > 25 µM | > 22.2 µM | > 25 µM | > 25 µM | > 25 µM | > 25 µM | > 25 µM | > 22.1 µM | > 25 µM |
| C=CC(=O)N[C@@H]1CN(c2nc(Nc3cn(C)nc3OC)c3ncn(C)c3n2)C[C@H]1F | 26.1 µM | 78.3 µM | 42.9 µM | > 100 µM | 2.61 µM | > 72.6 µM | 17.6 µM | 48.6 µM | 33.6 µM | > 100 µM | 16.4 µM | 67.7 µM | 24.8 µM | > 59.8 µM | 39.1 µM | > 100 µM | 47.8 µM | > 100 µM | 28.1 µM | > 100 µM |
| CC(C)N(C(=O)C12C3C4C1C1C2C3C41C(=O)C(C)(C)C)C(C)C (centres undefined) |  | > 100 µM |  | > 100 µM |  | > 100 µM |  | > 100 µM |  | > 100 µM |  | > 100 µM |  | > 100 µM |  | > 100 µM |  | > 100 µM |  | > 100 µM |
| CCOC(=O)/C(=C/CC/C(C)=C/CC/C(C)=C/CCc1ccoc1)CC(=O)N1CCCCC1 | 2.04 µM | 4 µM | 3.91 µM | 96 µM | 14 µM | 47.2 µM | 2.32 µM | 6.05 µM | 3.97 µM | 40.2 µM | 1.27 µM | 3.08 µM | 1.66 µM | 3.09 µM |  |  | 3.93 µM | 14.3 µM | 5.29 µM | 18.8 µM |
| C[C@@H](C1CC[C@H]2[C@@H]3[C@@H]4O[C@@H]4[C@@]4(O)CC=CC(=O)[C@]4(C)[C@H]3C[C@H](O)[C@]12C)[C@H]1C[C@]2(C)O[C@]2(C)C(=O)O1 (some centres undefined) |  | > 100 µM |  | > 100 µM |  | > 100 µM |  | > 100 µM |  | > 100 µM |  | > 100 µM |  | > 100 µM |  | > 100 µM |  | > 100 µM |  | > 100 µM |
| C[C@@H](O)[C@@H](C)Oc1nc(Nc2ccc(S(=N)(=O)C3CC3)cc2)ncc1C(F)(F)F (some centres undefined) | 0.0219 µM | 0.0621 µM | 0.0425 µM | > 100 µM | 0.0291 µM | 25.2 µM | 0.0158 µM | 0.0328 µM |  |  | 0.021 µM | 0.0461 µM | 0.0266 µM | 0.108 µM | 0.0252 µM | 13.2 µM | 0.0465 µM | 2.72 µM | 0.0352 µM | 17.8 µM |
| N#CCCN(CCC#N)c1ccc(/C=C(/NC(=O)c2cc([N+](=O)[O-])ccc2Cl)C(=O)N=[N+]=[N-])cc1 |  | > 100 µM |  | > 100 µM |  | > 100 µM |  | > 100 µM |  | > 100 µM |  | > 100 µM |  | > 100 µM |  | > 100 µM |  | > 100 µM |  | > 100 µM |
| Cc1cc2c(cc1Cl)SC(N(c1ccccc1Cl)S(=O)(=O)c1ccc(Br)s1)=NS2(=O)=O | 12.8 µM | 43.7 µM | 18.7 µM | 54.6 µM | 19.8 µM | 89.8 µM | 12.2 µM | 28 µM |  |  | 11.3 µM | 42 µM | 13.8 µM | 26.7 µM | 16.5 µM | 46.3 µM | 19.7 µM | 53.4 µM | 30 µM | > 100 µM |
| N#Cc1ncc(C(Cl)Cl)nc1Cl |  | 4.33 µM |  | > 7.1 µM |  | 5.3 µM |  | 3.3 µM |  | 5.16 µM |  | > 10 µM |  | 3.35 µM |  | 3.78 µM |  | 3.06 µM |  | 3.16 µM |
| O=C(Nc1ccc(OS(=O)(=O)c2ccc(F)cc2)cc1)C12CC3CC(CC(C3)C1)C2 | 12.9 µM | 39.3 µM | 0.319 µM | > 100 µM | 16.1 µM | > 62.5 µM | 0.434 µM | > 100 µM | 18.1 µM | > 100 µM | 0.936 µM | 22.4 µM | 4.12 µM | > 100 µM | 18 µM | > 100 µM | > 28.2 µM | > 100 µM | 8.33 µM | 44.5 µM |
| CC1CC(C[N+](=O)[O-])CC2(C1)OCCO2 (centres undefined) |  | > 100 µM |  | > 100 µM |  | > 100 µM |  | > 100 µM |  | > 100 µM |  | > 100 µM |  | > 100 µM |  | > 100 µM |  | > 100 µM |  | > 100 µM |
| CCOC(=O)c1oc2c(OC)ccc3c2c1CCC3 |  | > 100 µM |  | > 100 µM |  | > 100 µM |  | > 100 µM |  | > 100 µM |  | > 100 µM |  | > 100 µM |  | > 100 µM |  | > 100 µM |  | > 100 µM |
| COc1ccc(C(=O)/C=C/c2sc(Cl)nc2Cl)cc1 | 11.1 µM | 35.5 µM | 0.328 µM | > 100 µM | 0.368 µM | 1.91 µM | 2.28 µM | 6.74 µM | 1.05 µM | 13.9 µM | 4.67 µM | 20.2 µM | 1.53 µM | 4.15 µM | 1.68 µM | 3.83 µM | 1.72 µM | 3.31 µM | 1.94 µM | 4.94 µM |
| O=C(COc1ccc(/C=C2\Oc3ccc4ccccc4c3C2=O)cc1)c1ccc([N+](=O)[O-])cc1 | 15.5 µM | 73.7 µM | 5.19 µM | > 100 µM | 4.06 µM | 34.1 µM | 11.2 µM | 33.5 µM | 4.88 µM | 23.2 µM | 41.5 µM | > 100 µM | 13.2 µM | 28.9 µM | 13.1 µM | 25.8 µM | 16.7 µM | 31.6 µM | 14.7 µM | 34.6 µM |
| NC1=NN(c2ccccc2)C(=O)C1C(=O)C(=O)Nc1ccc(Cl)cc1 (centres undefined) |  | > 100 µM |  | > 100 µM |  | > 100 µM |  | > 100 µM |  | > 100 µM |  | > 100 µM |  | > 100 µM |  | > 100 µM |  | > 100 µM |  | > 100 µM |
